Tested on: appetite of cats
Test: Food consumption (appetite) of stressed healthy cats after dose administration
Assay type: in vivo, cat
Settings: subcutaneous injection 3.75 mg vs oral 3.75 mg
Text: The purpose of these tests is to evaluate the effect of administration of mirtazapine by subcutaneous injection on the appetite of cats as compared to dose administration by the oral route (positive control) and a control (injection of saline solution, negative control). The healthy cats selected were previously acclimated for at least seven days prior to testing; during this period, they were examined by a veterinarian. They were then divided into three groups of two cats each according to a cross-over experimental design, with each cat receiving each of the 3 treatments according to a predetermined sequence: • 0.5 ml of saline (0.9% sodium chloride) was administered by subcutaneous injection in the interscapular area to the T0 group which represents the negative control; • the group T1 received a subcutaneous injection, in the interscapular area, of 0.5 ml of the tested formulation of mirtazapine (represents a dose administration of 3.75 mg of mirtazapine); • the group T3 instead received 0.25 ml (represents a dose administration of 3.75 mg of mirtazapine) of the liquid formulation by means of forced administration (syringe) in the mouth and represents the positive control group. […] The food consumption is represented in FIGS. 2A (food consumption measured at each point) and 2B (cumulative food consumption).

CN1CCN2c3ncccc3Cc3ccccc3C2C1 (centres unmarked) [mirtazapine, 1,2,3,4,10,14b-hexahydro-2-methylpyrazino(2,1-a)pyrido(2,3-c)benzazepine]
duration of appetite induction compared with oral administration: inducing appetite for a longer time period | increase in appetite (food consumption) compared with same dose by oral route: as effective as the administration of the same dose by oral route
